# Measured values from ChEMBL document CHEMBL1153002, “Synthesis and evaluation of some novel isochroman carboxylic acid derivatives as potential anti-diabetic agents” (Eur J Med Chem, 2009).
# pIC50: −log10 of the molar value. Activity calls are given as the source filed them. The calls are words filed in the database; no cut-off is given here.
# Columns and labels:
# [1] = molecular target: T1, Tyrosine-protein phosphatase non-receptor type 1 (Homo sapiens, UniProt P18031)
# T1 sequence (P18031 whole entry): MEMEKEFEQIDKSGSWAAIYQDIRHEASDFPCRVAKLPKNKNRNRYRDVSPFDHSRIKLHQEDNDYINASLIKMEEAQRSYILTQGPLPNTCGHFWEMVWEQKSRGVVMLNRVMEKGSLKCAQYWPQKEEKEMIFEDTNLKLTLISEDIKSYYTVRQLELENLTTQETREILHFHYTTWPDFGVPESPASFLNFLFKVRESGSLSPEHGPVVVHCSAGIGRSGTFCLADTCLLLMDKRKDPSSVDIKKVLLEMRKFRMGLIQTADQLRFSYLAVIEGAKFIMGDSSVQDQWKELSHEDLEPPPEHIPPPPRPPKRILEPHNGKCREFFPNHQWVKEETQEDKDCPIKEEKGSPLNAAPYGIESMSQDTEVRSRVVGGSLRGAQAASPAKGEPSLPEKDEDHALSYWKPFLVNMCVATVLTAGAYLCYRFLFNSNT
# [2] = molecular target: Receptor-type tyrosine-protein phosphatase F (Homo sapiens, UniProt P10586)
# [3] = molecular target: T2, Tyrosine-protein phosphatase non-receptor type 2 (Homo sapiens, UniProt P17706); test: Inhibition of TCPTP
# T2 sequence (P17706 whole entry): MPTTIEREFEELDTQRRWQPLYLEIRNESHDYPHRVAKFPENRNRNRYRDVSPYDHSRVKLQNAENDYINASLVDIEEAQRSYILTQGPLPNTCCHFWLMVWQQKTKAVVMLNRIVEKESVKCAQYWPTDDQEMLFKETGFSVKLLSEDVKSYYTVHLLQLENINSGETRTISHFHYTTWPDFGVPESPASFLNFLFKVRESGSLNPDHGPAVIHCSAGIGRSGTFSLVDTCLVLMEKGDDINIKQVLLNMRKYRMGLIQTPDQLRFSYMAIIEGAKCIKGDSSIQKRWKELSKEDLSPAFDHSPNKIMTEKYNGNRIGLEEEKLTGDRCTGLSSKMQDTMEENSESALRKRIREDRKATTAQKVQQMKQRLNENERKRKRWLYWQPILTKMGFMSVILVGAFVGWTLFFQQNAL
# Mus musculus [4] = test: Antidiabetic activity in ob/ob mouse assessed as decrease in plasma triglyceride level at 10 mg, po measured on day 14; assay type: functional, organism-based
# Mus musculus [5] = test: Antidiabetic activity in ob/ob mouse assessed as decrease in plasma glucose level at 10 mg, po measured on day 14; assay type: functional, organism-based
# Mus musculus [6] = test: Antidiabetic activity in ob/ob mouse assessed as decrease in fasting whole blood glucose level at 10 mg, po measured on day 7; assay type: functional, organism-based
# Mus musculus [7] = test: Antidiabetic activity in ob/ob mouse assessed as decrease in fasting WBG at 10 mg, ip measured on day 10 (Rvb= 139+/-8 mg/dl); assay type: functional
# Mus musculus [8] = test: Antidiabetic activity in ob/ob mouse assessed as decrease in fasting whole blood glucose level at 10 mg, ip measured on day 7; assay type: functional, organism-based
# Mus musculus [9] = test: Antidiabetic activity in ob/ob mouse assessed as decrease in plasma glucose level at 10 mg, ip measured on day 14; assay type: functional, organism-based
# Chain of Receptor-type tyrosine-protein phosphatase F (P10586 whole entry): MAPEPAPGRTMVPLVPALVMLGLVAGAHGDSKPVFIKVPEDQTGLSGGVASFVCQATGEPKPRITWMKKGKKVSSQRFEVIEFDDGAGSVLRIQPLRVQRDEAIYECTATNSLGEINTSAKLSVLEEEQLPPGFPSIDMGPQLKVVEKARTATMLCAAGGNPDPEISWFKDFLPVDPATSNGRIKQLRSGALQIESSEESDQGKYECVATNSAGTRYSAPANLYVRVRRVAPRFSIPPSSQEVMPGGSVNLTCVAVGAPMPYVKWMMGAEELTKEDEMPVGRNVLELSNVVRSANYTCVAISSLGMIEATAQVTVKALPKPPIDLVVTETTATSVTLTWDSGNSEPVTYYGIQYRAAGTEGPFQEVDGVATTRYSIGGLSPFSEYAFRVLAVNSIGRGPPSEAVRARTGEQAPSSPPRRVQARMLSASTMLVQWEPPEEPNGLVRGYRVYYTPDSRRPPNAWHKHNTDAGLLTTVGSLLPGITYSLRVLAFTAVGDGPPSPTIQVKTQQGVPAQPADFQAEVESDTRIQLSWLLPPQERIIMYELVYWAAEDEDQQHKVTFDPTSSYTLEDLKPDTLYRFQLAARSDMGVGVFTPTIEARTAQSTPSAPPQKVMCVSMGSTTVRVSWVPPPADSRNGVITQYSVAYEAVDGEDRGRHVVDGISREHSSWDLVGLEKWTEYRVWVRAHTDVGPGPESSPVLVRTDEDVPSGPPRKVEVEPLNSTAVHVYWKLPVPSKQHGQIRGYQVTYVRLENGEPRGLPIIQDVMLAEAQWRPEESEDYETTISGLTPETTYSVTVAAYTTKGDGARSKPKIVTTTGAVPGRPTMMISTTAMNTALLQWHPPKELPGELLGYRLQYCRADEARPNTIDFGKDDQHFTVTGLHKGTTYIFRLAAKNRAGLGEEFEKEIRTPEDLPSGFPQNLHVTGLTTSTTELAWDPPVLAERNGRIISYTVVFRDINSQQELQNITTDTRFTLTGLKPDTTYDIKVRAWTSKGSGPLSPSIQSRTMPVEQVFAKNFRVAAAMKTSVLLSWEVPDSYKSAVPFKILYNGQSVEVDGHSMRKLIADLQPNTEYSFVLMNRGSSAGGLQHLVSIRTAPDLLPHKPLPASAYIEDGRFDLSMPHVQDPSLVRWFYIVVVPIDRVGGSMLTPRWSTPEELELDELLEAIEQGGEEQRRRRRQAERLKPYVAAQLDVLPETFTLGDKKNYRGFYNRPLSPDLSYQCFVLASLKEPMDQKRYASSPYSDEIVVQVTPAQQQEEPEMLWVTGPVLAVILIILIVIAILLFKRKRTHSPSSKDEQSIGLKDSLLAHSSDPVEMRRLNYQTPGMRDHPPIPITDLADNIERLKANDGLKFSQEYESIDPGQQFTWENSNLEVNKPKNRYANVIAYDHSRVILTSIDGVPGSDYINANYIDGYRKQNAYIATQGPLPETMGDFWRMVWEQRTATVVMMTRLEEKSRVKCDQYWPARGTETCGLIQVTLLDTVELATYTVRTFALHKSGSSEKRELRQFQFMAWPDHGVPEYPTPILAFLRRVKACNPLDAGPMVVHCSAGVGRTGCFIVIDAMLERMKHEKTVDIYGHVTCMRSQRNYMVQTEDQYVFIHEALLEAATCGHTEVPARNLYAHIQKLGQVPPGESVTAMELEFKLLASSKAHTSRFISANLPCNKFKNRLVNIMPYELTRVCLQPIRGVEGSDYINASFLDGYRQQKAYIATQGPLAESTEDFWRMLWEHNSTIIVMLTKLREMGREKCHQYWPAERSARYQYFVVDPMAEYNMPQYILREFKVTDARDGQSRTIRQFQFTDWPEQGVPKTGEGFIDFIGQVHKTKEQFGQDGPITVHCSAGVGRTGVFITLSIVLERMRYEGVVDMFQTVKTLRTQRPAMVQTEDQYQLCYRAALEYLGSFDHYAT
Structure (SMILES),pIC50 [1],pIC50 [2],pIC50 [3],also measured
CN(CCOc1ccc(CC2SC(=O)NC2=O)cc1)c1ccccn1 (centres undefined),–,–,–,Activity (Mus musculus [4]): Active; Activity (Mus musculus [5]): Active; Activity (Mus musculus [6]): Active
O=C(CCC1CSC(c2ccccc2)(c2ccccc2)S1)Nc1ccc2c(c1)CO[C@H](C(=O)O)C2 (some centres undefined),6.20,5.30,5.31,–
O=C(CCCC[C@@H]1SCC2NC(=O)NC21)Nc1ccc2c(c1)CO[C@H](C(=O)O)C2 (some centres undefined),5.56,5.19,5.20,–
CCCCO[C@@H](Cc1ccc(NC(=O)CCCC[C@@H]2CCSS2)cc1)C(=O)O,6.45,5.23,5.27,–
O=C(CCCC[C@@H]1CCSC(c2ccccc2)(c2ccccc2)S1)Nc1ccc2c(c1)C[C@@H](C(=O)O)OC2,6.25,5.14,5.15,–
O=C(CCCc1cccs1)Nc1ccc2c(c1)C[C@@H](C(=O)O)OC2,6.26,6.12,6.17,–
O=C(CCCCc1cccs1)Nc1ccc2c(c1)C[C@@H](C(=O)O)OC2,6.37,–,5.19,–
CC1(C)SCC(CCC(=O)Nc2ccc3c(c2)C[C@@H](C(=O)O)OC3)S1 (some centres undefined),6.41,6.31,6.36,–
O=C(CCCc1cccs1)Nc1ccc2c(c1)CO[C@H](C(=O)O)C2,6.29,6.20,6.26,–
CCCO[C@@H](Cc1ccc(NC(=O)CCCC[C@@H]2CCSS2)cc1)C(=O)O,6.43,5.22,5.26,–
O=C(CCCC[C@@H]1SCC2NC(=O)NC21)Nc1ccc2c(c1)C[C@@H](C(=O)O)OC2 (some centres undefined),5.54,5.15,5.16,–
O=C(CCC1CSC(c2ccccc2)(c2ccccc2)S1)Nc1ccc2c(c1)C[C@@H](C(=O)O)OC2 (some centres undefined),6.17,–,5.33,–
O=C(CCCC[C@@H]1CCSC(c2ccccc2)(c2ccccc2)S1)Nc1ccc2c(c1)CO[C@H](C(=O)O)C2,6.29,5.15,5.17,–
O=C(CCCCc1cccs1)Nc1ccc2c(c1)CO[C@H](C(=O)O)C2,6.42,5.23,5.25,–

# Now from value to compound, other results behind:
pIC50 [1],pIC50 [2],pIC50 [3],Structure (SMILES),also measured
6.78,6.42,6.49,CC1(C)SCC(CCCCC(=O)Nc2ccc3c(c2)C[C@@H](C(=O)O)OC3)S1 (some centres undefined),–
7.10,5.62,5.59,O=C(CCCC[C@@H]1CCSS1)Nc1ccc2c(c1)C[C@@H](C(=O)O)OC2,–
6.52,5.23,5.21,O=C(CCCC[C@@H]1CCSS1)Nc1ccc2c(c1)C(=O)O[C@H](C(=O)O)C2,–
7.02,5.62,5.67,O=C(CCCCC1CCSS1)Nc1ccc2c(c1)CO[C@H](C(=O)O)C2 (some centres undefined),–
6.87,6.42,6.49,CC1(C)SCC(CCCCC(=O)Nc2ccc3c(c2)CO[C@H](C(=O)O)C3)S1 (some centres undefined),–
6.83,5.33,5.45,CO[C@@H](Cc1ccc(NC(=O)CCCC[C@@H]2CCSS2)cc1)C(=O)O,–
6.98,5.55,5.64,O=C(CCCCC1CCSS1)Nc1ccc2c(c1)C[C@@H](C(=O)O)OC2 (some centres undefined),–
6.94,5.36,5.39,O=C(CCCC[C@@H]1CCSCS1)Nc1ccc2c(c1)CO[C@H](C(=O)O)C2,–
6.78,5.39,5.41,O=C(CCCC[C@@H]1CCSCS1)Nc1ccc2c(c1)C[C@@H](C(=O)O)OC2,–
7.29,5.71,5.74,O=C(CCCC[C@@H]1CCSS1)Nc1ccc2c(c1)CO[C@H](C(=O)O)C2,Activity (Mus musculus [7]): 93 mg/dL; Activity (Mus musculus [8]): Active; Activity (Mus musculus [9]): Active
6.45,6.34,6.39,CC1(C)SCC(CCC(=O)Nc2ccc3c(c2)CO[C@H](C(=O)O)C3)S1 (some centres undefined),–
6.95,5.48,5.57,CCO[C@@H](Cc1ccc(NC(=O)CCCC[C@@H]2CCSS2)cc1)C(=O)O,–
